Results on nine compounds are retold here after US20240270762A1, “PENICILLIN-BINDING PROTEIN INHIBITORS” (priority 2021, published 2024).

Assay [1] deals with P. aeruginosa (ΔmexAB-oprM). Kind of assay: Broth microdilution MIC in iron-depleted CAMHB (IDM). It is filed as cell-based. The following applies: Pseudomonas aeruginosa; iron-depleted CAMHB (IDM); […]; read-out: Minimum inhibitory concentration, P. aeruginosa ΔmexAB-oprM.
For another assay, the system named is A. baumannii ATCC 17978. Kind of assay: microbe, parasite or virus in culture. In kind it is cell-based. To be noted: Acinetobacter baumannii.
The next assay has as its system A. baumannii CDC-0033. Kind of assay: microbe, parasite or virus in culture. In kind it is cell-based. To be noted: Acinetobacter baumannii.
The next assay relates to P. aeruginosa ATCC 35151. Kind of assay: microbe, parasite or virus in culture. To be noted: Pseudomonas aeruginosa, ATCC35151, read-out: Minimum inhibitory concentration, P. aeruginosa ATCC 35151. It is filed as cell-based.
A further assay relates to A. baumannii CDC-0045. The assay can be described thus: microbe, parasite or virus in culture. In kind it is cell-based. To be noted: Acinetobacter baumannii.
Another assay deals with A. baumannii 1258916. Kind of assay: microbe, parasite or virus in culture. It is filed as cell-based, Acinetobacter baumannii.
For assay [2], the system named is B. thailandensis ATCC 700388. Kind of assay: microbe, parasite or virus in culture. The following applies: Burkholderia thailandensis, ATCC700388, read-out: Minimum inhibitory concentration (MIC), B. thailandensis ATCC 700388. It is filed as cell-based.
For the next assay, the system named is P. aeruginosa CDC-0054. Kind of assay: microbe, parasite or virus in culture. In kind it is cell-based. To be noted: Pseudomonas aeruginosa, CDC0054, read-out: Minimum inhibitory concentration, P. aeruginosa CDC-0054.
Assay [3] addresses T1, PBP3 from Acinetobacter baumannii (ATCC 19606) (Acinetobacter baumannii, UniProt A0ABX6CK25).
T1 sequence (A0ABX6CK25 64-610): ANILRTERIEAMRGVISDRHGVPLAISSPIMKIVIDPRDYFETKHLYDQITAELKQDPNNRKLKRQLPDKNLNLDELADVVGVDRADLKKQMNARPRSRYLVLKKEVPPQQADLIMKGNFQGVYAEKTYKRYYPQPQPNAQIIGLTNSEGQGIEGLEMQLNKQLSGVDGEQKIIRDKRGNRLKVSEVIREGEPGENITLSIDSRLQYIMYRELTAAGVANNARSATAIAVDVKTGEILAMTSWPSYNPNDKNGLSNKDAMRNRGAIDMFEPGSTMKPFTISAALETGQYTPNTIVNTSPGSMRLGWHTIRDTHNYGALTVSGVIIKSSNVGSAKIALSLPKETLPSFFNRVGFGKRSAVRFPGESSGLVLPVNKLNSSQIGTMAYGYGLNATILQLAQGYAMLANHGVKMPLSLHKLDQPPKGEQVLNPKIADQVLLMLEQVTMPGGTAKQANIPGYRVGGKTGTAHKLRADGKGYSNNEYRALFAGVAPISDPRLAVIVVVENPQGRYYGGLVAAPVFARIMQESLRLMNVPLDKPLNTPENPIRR
The assay can be described thus: Bocillin-FL fluorescence polarization competition binding, A. baumannii PBP3. To be noted: fluorescence polarization competition binding assay using Bocillin-FL; read-out: A. baumannii PBP3 Potency. In a few lines: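 Purified PBP was preincubated with inhibitor (E. coli PBP3 1.5 μM, 30 min; P. aeruginosa PBP3 0.75 μM, A. baumannii PBP3 0.2 μM and PBP1a 1 μM, 15 min), then Bocillin-FL (0.1 μM; 0.05 μM for PBP1a) added and FP read up to 60 min. EC50 = 50% loss of bound probe.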

The test system of assay [4] is B. humptydooensis ATCC BAA-2767. The assay can be described thus: microbe, parasite or virus in culture. To be noted: Burkholderia humptydooensis, ATCCBAA2767, read-out: Minimum inhibitory concentration (MIC), B. humptydooensis ATCC BAA-2767. It is filed as cell-based.
[5] abbreviates: ATCC17978, read-out: MIC, A. baumannii ATCC 17978.
[6] abbreviates: CDC0033, read-out: MIC, A. baumannii CDC-0033.
[7] abbreviates: CDC0045, read-out: MIC, A. baumannii CDC-0045.
The mark [8] stands for this setting: Acinetobacter baumannii, 1258916, read-out: MIC, A. baumannii 1258916.

Values after ≈ are worked out from the molar mass of the structure shown. Where two headings read alike, the source gives them in different places.

In the case of `O=C(O)c1c(F)ccc2c1OB(O)[C@@H](NC(=O)[C@H](NC(=O)N1CCN(C3CCN(C(=O)Nc4cc(O)ccc4F)CC3)C1=O)c1cc(F)c(O)c(O)c1Cl)C2` (single isomer, unassigned) [Example 451], the MIC (in [1]; in the assay with A. baumannii ATCC 17978 (setting [5]); in the assay on A. baumannii CDC-0033 (setting [6]); in the assay on P. aeruginosa ATCC 35151; with A. baumannii CDC-0045 (setting [7]); in the assay on A. baumannii 1258916 (setting [8])) was < 1 µg/mL in each case. Moreover, the MIC (in assay [2]; with P. aeruginosa CDC-0054; in assay [4]) was < 1 µg/mL each time. Besides, the IC50 in assay [3] was < 10 µM.

Regarding `O=C(O)c1cccc2c1OB(O)[C@@H](NC(=O)C(NC(=O)N1CCN(Cc3cc(F)c(O)c(O)c3Cl)C(=O)C1=O)c1ccc(P(=O)(O)O)cc1)C2` (stereo partly drawn) [Example 164, (3R)-3-(2-(4-(2-chloro-5-fluoro-3,4-dihydroxybenzyl)-2,3-dioxopiperazine-1-carboxamido)-2-(4-phosphonophenyl)acetamido)-2-hydroxy-3,4-dihydro-2H-benzo[e][1,2]oxaborinine-8-carboxylic acid], the MIC (in assay [1]; in the assay on A. baumannii ATCC 17978 (setting [5]); in the assay on A. baumannii CDC-0033 (setting [6]); in the assay on P. aeruginosa ATCC 35151; in the assay with A. baumannii CDC-0045 (setting [7]); with A. baumannii 1258916 (setting [8])) was < 1 µg/mL in each case. Also, the MIC (in [2]; in the assay on P. aeruginosa CDC-0054; in [4]) was < 1 µg/mL in each case. In addition, the IC50 in [3] is < 10 µM.

Take `O=C(O)c1c(F)ccc2c1OB(O)[C@@H](NC(=O)[C@H](NC(=O)N1CCN(C3CCN(C(=O)c4cc(O)ccc4Cl)CC3)C1=O)c1cc(F)c(O)c(O)c1Cl)C2` (single isomer, unassigned) [Example 434]: the MIC (in assay [1]; with A. baumannii ATCC 17978 (setting [5]); in the assay with A. baumannii CDC-0033 (setting [6]); with P. aeruginosa ATCC 35151; in the assay with A. baumannii CDC-0045 (setting [7]); in the assay on A. baumannii 1258916 (setting [8])) was < 1 µg/mL throughout. For the same compound, the MIC (in assay [2]; in the assay with P. aeruginosa CDC-0054; in assay [4]) was < 1 µg/mL in each case. In assay [3], the IC50 was < 10 µM.

With `O=C(NCCS(=O)(=O)N1CCN(C(=O)N[C@H](C(=O)N[C@H]2Cc3ccc(F)c(C(=O)O)c3OB2O)c2ccc(P(=O)(O)O)cc2)C1=O)c1ccc(O)c(O)c1Cl` [Example 167, (R)-3-((S)-2-(3-((2-(2-chloro-3,4-dihydroxybenzamido)ethyl)sulfonyl)-2-oxoimidazolidine-1-carboxamido)-2-(4-phosphonophenyl)acetamido)-7-fluoro-2-hydroxy-3,4-dihydro-2H-benzo[e][1,2]oxaborinine-8-carboxylic acid], the MIC was > 128 µg/mL in assay [1]; 32 to 64 µg/mL (≈ 38.7 to 77.3 µM) with A. baumannii ATCC 17978 (setting [5]); > 128 µg/mL with A. baumannii CDC-0033 (setting [6]); 32 to 64 µg/mL (≈ 38.7 to 77.3 µM) with P. aeruginosa ATCC 35151; > 128 µg/mL with A. baumannii CDC-0045 (setting [7]); > 128 µg/mL in the assay with A. baumannii 1258916 (setting [8]). The MIC (in assay [2]; in the assay on P. aeruginosa CDC-0054; in assay [4]) was > 128 µg/mL in each case. Besides, the IC50 in assay [3] is 10 to 50 µM.

With `O=C(O)c1c(F)ccc2c1OB(O)[C@@H](NC(=O)[C@H](NC(=O)N1CCN(Cc3ccc(O)c(O)c3Cl)C(=O)C1=O)c1ccc(P(=O)(O)O)c(F)c1F)C2` [Example 166, (R)-3-((R)-2-(4-(2-chloro-3,4-dihydroxybenzyl)-2,3-dioxopiperazine-1-carboxamido)-2-(2,3-difluoro-4-phosphonophenyl)acetamido)-7-fluoro-2-hydroxy-3,4-dihydro-2H-benzo[e][1,2]oxaborinine-8-carboxylic acid], the MIC (in assay [1]; with A. baumannii ATCC 17978 (setting [5]); in the assay on A. baumannii CDC-0033 (setting [6]); in the assay on P. aeruginosa ATCC 35151; in the assay with A. baumannii CDC-0045 (setting [7]); with A. baumannii 1258916 (setting [8])) was < 1 µg/mL each time. The MIC (in [2]; with P. aeruginosa CDC-0054; in [4]) was < 1 µg/mL in each case. In addition, the IC50 in assay [3] is < 10 µM.

Consider `O=C(O)c1c(F)ccc2c1OB(O)[C@@H](NC(=O)C(NC(=O)N1CCN(C3CCN(C(=O)Nc4cc(O)c(F)c(F)c4)CC3)C(=O)C1=O)c1cc(F)c(O)c(O)c1Cl)C2` (stereo partly drawn) [Example 488, (3R)-3-(2-(2-chloro-5-fluoro-3,4-dihydroxyphenyl)-2-(4-(1-((3,4-difluoro-5-hydroxyphenyl)carbamoyl)piperidin-4-yl)-2,3-dioxopiperazine-1-carboxamido)acetamido)-7-fluoro-2-hydroxy-3,4-dihydro-2H-benzo[e][1,2]oxaborinine-8-carboxylic acid], for which the MIC in [1] is < 1 µg/mL; with A. baumannii ATCC 17978 (ATCC17978, read-out: Minimum inhibitory concentration (MIC), A. baumannii ATCC 17978), < 1 µg/mL; with A. baumannii CDC-0033 (CDC0033, read-out: Minimum inhibitory concentration (MIC), A. baumannii CDC-0033), 2 to 4 µg/mL (≈ 2.39 to 4.78 µM); with P. aeruginosa ATCC 35151, < 1 µg/mL; with A. baumannii CDC-0045 (CDC0045, read-out: Minimum inhibitory concentration (MIC), A. baumannii CDC-0045), < 1 µg/mL; in the assay with A. baumannii 1258916 (Acinetobacter baumannii, 1258916, read-out: Minimum inhibitory concentration (MIC), A. baumannii 1258916), < 1 µg/mL. In addition, the MIC was 8 to 16 µg/mL (≈ 9.56 to 19.1 µM) in assay [2], < 1 µg/mL in the assay with P. aeruginosa CDC-0054 and > 128 µg/mL in assay [4]. Also, in assay [3], the IC50 was < 10 µM.

As for `O=C(O)c1c(F)ccc2c1OB(O)[C@@H](NC(=O)C(NC(=O)N1CCN(C3CCN(C(=O)Nc4cc(O)cc(Cl)c4)CC3)C(=O)C1=O)c1cc(F)c(O)c(O)c1Cl)C2` (stereo partly drawn) [Example 484, (3R)-3-(2-(2-chloro-5-fluoro-3,4-dihydroxyphenyl)-2-(4-(1-((3-chloro-5-hydroxyphenyl)carbamoyl)piperidin-4-yl)-2,3-dioxopiperazine-1-carboxamido)acetamido)-7-fluoro-2-hydroxy-3,4-dihydro-2H-benzo[e][1,2]oxaborinine-8-carboxylic acid], the MIC was < 1 µg/mL in assay [1]; < 1 µg/mL in the assay on A. baumannii ATCC 17978 (setting [5]); 2 to 4 µg/mL (≈ 2.39 to 4.79 µM) with A. baumannii CDC-0033 (setting [6]); < 1 µg/mL in the assay on P. aeruginosa ATCC 35151; < 1 µg/mL in the assay on A. baumannii CDC-0045 (setting [7]); < 1 µg/mL in the assay with A. baumannii 1258916 (setting [8]). The MIC is 32 to 64 µg/mL (≈ 38.3 to 76.6 µM) in [2], 2 to 4 µg/mL (≈ 2.39 to 4.79 µM) in the assay on P. aeruginosa CDC-0054 and > 128 µg/mL in assay [4]. For the same compound, the IC50 in assay [3] was < 10 µM.

Turning to `O=C(O)c1c(F)ccc2c1OB(O)[C@@H](NC(=O)C(NC(=O)N1CCN(C3CCN(C(=O)Nc4ccc(F)c(O)c4F)CC3)C1=O)c1cc(F)c(O)c(O)c1Cl)C2` (stereo partly drawn) [Example 452, (3R)-3-(2-(2-chloro-5-fluoro-3,4-dihydroxyphenyl)-2-(3-(1-((2,4-difluoro-3-hydroxyphenyl)carbamoyl)piperidin-4-yl)-2-oxoimidazolidine-1-carboxamido)acetamido)-7-fluoro-2-hydroxy-3,4-dihydro-2H-benzo[e][1,2]oxaborinine-8-carboxylic acid], the MIC in assay [1] is < 1 µg/mL; in the assay with A. baumannii ATCC 17978 (setting [5]) it was < 1 µg/mL; in the assay with A. baumannii CDC-0033 (setting [6]) it was 2 to 4 µg/mL (≈ 2.47 to 4.95 µM); in the assay with P. aeruginosa ATCC 35151, < 1 µg/mL; in the assay on A. baumannii CDC-0045 (setting [7]), < 1 µg/mL; in the assay on A. baumannii 1258916 (setting [8]) it was < 1 µg/mL. In addition, in the assay on P. aeruginosa CDC-0054, the MIC was < 1 µg/mL. Also, the IC50 in assay [3] is < 10 µM.

For `O=C(O)c1c(F)ccc2c1OB(O)[C@@H](NC(=O)[C@H](NC(=O)N1CCN(C3CCN(C(=O)c4cc(O)cc(O)c4)CC3)C1=O)c1cc(F)c(O)c(O)c1Cl)C2` (single isomer, unassigned) [Example 442], the MIC (in assay [1]; in the assay with A. baumannii ATCC 17978 (setting [5]); in the assay with A. baumannii CDC-0033 (setting [6]); in the assay on P. aeruginosa ATCC 35151; in the assay on A. baumannii CDC-0045 (setting [7]); with A. baumannii 1258916 (setting [8])) was < 1 µg/mL in each case. Moreover, the MIC (in [2]; in the assay on P. aeruginosa CDC-0054; in assay [4]) was < 1 µg/mL each time. The IC50 in assay [3] was < 10 µM.
